Assay results taken from ChEMBL document CHEMBL5728008, “Compound used as Bruton's tyrosine kinase inhibitor and preparation method and application thereof” (2020).

Target: Tyrosine-protein kinase BTK (Homo sapiens, UniProt Q06187)
Assay: In Vitro Assay for the Inhibition of BTK Kinase Activity: 1: Test Principle:Mobility-Shift Assay, which is microfluidic chip technology, applies the basic concept of capillary electrophoresis to microfluidic environments. The substrate used for the experiment is a polypeptide with a fluorescent label. Under the action of enzyme in the reaction system, the substrate is transformed into a product, and the charge the substrate carries also changes accordingly. The use of the charge difference between the substrate and the product involved in Mobility-Shift Assay achieves the separating of the two, and they are tested respectively.

Sequence of Tyrosine-protein kinase BTK (Q06187 whole entry): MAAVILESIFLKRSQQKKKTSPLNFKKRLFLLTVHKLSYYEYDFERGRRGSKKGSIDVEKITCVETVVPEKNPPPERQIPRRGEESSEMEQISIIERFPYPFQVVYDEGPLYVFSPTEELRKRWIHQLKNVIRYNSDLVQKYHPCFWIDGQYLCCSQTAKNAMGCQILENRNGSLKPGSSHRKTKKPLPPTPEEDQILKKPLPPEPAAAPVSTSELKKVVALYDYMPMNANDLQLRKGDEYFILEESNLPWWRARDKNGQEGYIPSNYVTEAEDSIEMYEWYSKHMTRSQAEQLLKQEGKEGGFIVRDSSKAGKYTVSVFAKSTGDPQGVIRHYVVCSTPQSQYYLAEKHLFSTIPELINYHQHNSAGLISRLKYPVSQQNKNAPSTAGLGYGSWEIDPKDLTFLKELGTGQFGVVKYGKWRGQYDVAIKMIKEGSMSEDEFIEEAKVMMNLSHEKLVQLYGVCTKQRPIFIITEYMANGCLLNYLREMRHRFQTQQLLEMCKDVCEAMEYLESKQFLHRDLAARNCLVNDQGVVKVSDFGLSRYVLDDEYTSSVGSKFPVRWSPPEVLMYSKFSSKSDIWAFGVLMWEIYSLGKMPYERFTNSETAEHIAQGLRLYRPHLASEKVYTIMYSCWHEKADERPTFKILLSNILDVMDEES

Structure (SMILES): C=CC(=O)N1CC2CCCC2C1c1nc(-c2ccc(C(=O)Nc3ccccn3)cc2)c2c(N)nccn12 (stereo unspecified)
- IC50: 4.7 nM
